In ChEMBL document CHEMBL3885861, “Open TG-GATES”:

Species on record: Rattus norvegicus
Test: Open TG-GATES - Regimen: Single
Format: toxicity, organism-based, Sprague-Dawley
Design: regimen Single, gender Male, age 6 weeks
Settings: in vivo, po, route gavage; for gamma-GTP / ALP / ALT / AST / BUN / CRE / DBIL / GLC / K / LDH / Na / PL / RALB / TBIL / TC / TG / TP: tissue Plasma; for APTT / Bas / Eos / Fbg / Hb / Ht / Lym / MCHC / MCV / Mono / PT / Plat / RBC / Ret / WBC: tissue Blood; for KIDNEY_L / KIDNEY_R / KIDNEY_TOTAL: tissue Kidney; for LIVER: tissue Liver
[1] = 1200 mg/kg, 3 h, dose level Middle
[2] = 1200 mg/kg, 6 h, dose level Middle
[3] = 1200 mg/kg, 9 h, dose level Middle
[4] = 1200 mg/kg, 24 h, dose level Middle
[5] = 2000 mg/kg, 3 h, dose level High
[6] = 2000 mg/kg, 6 h, dose level High
[7] = 2000 mg/kg, 9 h, dose level High
[8] = 2000 mg/kg, 24 h, dose level High

Structure (SMILES): O=C1NC(=O)C(c2ccccc2)(c2ccccc2)N1 [PHENYTOIN]
- gamma-GTP (600 mg/kg, 24 h, dose level Low): 1 IU/L
- TERMINAL_BW [1]: 211.8 g
- APTT [1]: 16.7 s
- Bas [1]: 0.2%
- Eos [1]: 1%
- Fbg [1]: 284.4 mg/dL
- Hb [1]: 13 g/dL
- Ht [1]: 38.7%
- Lym [1]: 75.2%
- MCHC [1]: 33.6%
- MCV [1]: 62.4 fL
- Mono [1]: 3.4%
- PT [1]: 13.8 s
- Plat [1]: 122.5 x10_4/uL
- RBC [1]: 621.4 x10_4/ul
- Ret [1]: 8.4%
- KIDNEY_L [1]: 0.9 g
- KIDNEY_R [1]: 0.9 g
- KIDNEY_TOTAL [1]: 1.8 g
- LIVER [1]: 9.3 g
- ALP [1]: 1502.4 IU/L
- ALT [1]: 35.2 IU/L
- AST [1]: 70.6 IU/L
- BUN [1]: 10.2 mg/dL
- CRE [1]: 0.2 mg/dL
- DBIL [1]: 0.016 mg/dL
- GLC [1]: 191.4 mg/dL
- K [1]: 4 meq/L
- LDH [1]: 98.2 IU/L
- Na [1]: 142.2 meq/L
- PL [1]: 146.8 mg/dL
- RALB [1]: 2.5 g/dL
- TBIL [1]: 0.052 mg/dL
- TC [1]: 75.6 mg/dL
- TG [1]: 74 mg/dL
- TP [1]: 5.4 g/dL
- gamma-GTP [1]: 1.2 IU/L
- TERMINAL_BW [2]: 207.5 g
- APTT [2]: 18 s
- Bas [2]: 0.4%
- Eos [2]: 1%
- Fbg [2]: 279.4 mg/dL
- Hb [2]: 13 g/dL
- Ht [2]: 38.7%
- Lym [2]: 73.2%
- MCHC [2]: 33.7%
- MCV [2]: 61.9 fL
- Mono [2]: 3%
- PT [2]: 14.5 s
- RBC [2]: 625.6 x10_4/ul
- Ret [2]: 8.2%
- WBC [2]: 94.4 x10_2/uL
- KIDNEY_L [2]: 0.9 g
- KIDNEY_R [2]: 0.9 g
- KIDNEY_TOTAL [2]: 1.9 g
- LIVER [2]: 8.7 g
- ALP [2]: 1256.2 IU/L
- ALT [2]: 35.8 IU/L
- AST [2]: 74.8 IU/L
- BUN [2]: 7.8 mg/dL
- CRE [2]: 0.2 mg/dL
- DBIL [2]: 0.016 mg/dL
- GLC [2]: 187 mg/dL
- K [2]: 3.7 meq/L
- LDH [2]: 77 IU/L
- Na [2]: 143.4 meq/L
- PL [2]: 141.4 mg/dL
- RALB [2]: 2.5 g/dL
- TBIL [2]: 0.058 mg/dL
- TC [2]: 76.8 mg/dL
- TG [2]: 30.6 mg/dL
- TP [2]: 5.4 g/dL
- gamma-GTP [2]: 1.2 IU/L
- TERMINAL_BW [3]: 206.4 g
- APTT [3]: 15.4 s
- Bas [3]: 0.4%
- Eos [3]: 1%
- Fbg [3]: 297 mg/dL
- Hb [3]: 13.1 g/dL
- Ht [3]: 38.9%
- Lym [3]: 78.6%
- MCHC [3]: 33.6%
- MCV [3]: 62.8 fL
- Mono [3]: 2%
- PT [3]: 14.1 s
- Plat [3]: 112.1 x10_4/uL
- RBC [3]: 619.2 x10_4/ul
- Ret [3]: 7.6%
- WBC [3]: 69.7 x10_2/uL
- KIDNEY_L [3]: 0.9 g
- KIDNEY_R [3]: 0.9 g
- KIDNEY_TOTAL [3]: 1.8 g
- LIVER [3]: 8 g
- ALP [3]: 1378 IU/L
- ALT [3]: 27.2 IU/L
- AST [3]: 71 IU/L
- BUN [3]: 7.4 mg/dL
- CRE [3]: 0.2 mg/dL
- DBIL [3]: 0.016 mg/dL
- GLC [3]: 194 mg/dL
- K [3]: 4.1 meq/L
- LDH [3]: 70.8 IU/L
- Na [3]: 142.2 meq/L
- PL [3]: 148.8 mg/dL
- RALB [3]: 2.6 g/dL
- TBIL [3]: 0.058 mg/dL
- TC [3]: 80 mg/dL
- TG [3]: 29.8 mg/dL
- TP [3]: 5.6 g/dL
- gamma-GTP [3]: 1 IU/L
- TERMINAL_BW [4]: 211.5 g
- APTT [4]: 16.7 s
- Bas [4]: 0.2%
- Eos [4]: 1.2%
- Fbg [4]: 278.6 mg/dL
- Hb [4]: 13.6 g/dL
- Ht [4]: 40%
- Lym [4]: 78.6%
- MCHC [4]: 33.9%
- MCV [4]: 61.9 fL
- Mono [4]: 2.4%
- PT [4]: 14.3 s
- Plat [4]: 118.4 x10_4/uL
- RBC [4]: 646.4 x10_4/ul
- Ret [4]: 7.1%
- WBC [4]: 94.4 x10_2/uL
- KIDNEY_L [4]: 1 g
- KIDNEY_R [4]: 1 g
- KIDNEY_TOTAL [4]: 1.9 g
- LIVER [4]: 8.6 g
- ALP [4]: 1604.8 IU/L
- ALT [4]: 29 IU/L
- AST [4]: 66.2 IU/L
- BUN [4]: 10 mg/dL
- CRE [4]: 0.2 mg/dL
- DBIL [4]: 0.02 mg/dL
- GLC [4]: 175.4 mg/dL
- K [4]: 4.2 meq/L
- LDH [4]: 102.4 IU/L
- Na [4]: 142.4 meq/L
- PL [4]: 126.6 mg/dL
- RALB [4]: 2.5 g/dL
- TBIL [4]: 0.042 mg/dL
- TC [4]: 66.8 mg/dL
- TG [4]: 52.4 mg/dL
- TP [4]: 5.4 g/dL
- gamma-GTP [4]: 1 IU/L
- TERMINAL_BW [5]: 211 g
- APTT [5]: 19.4 s
- Bas [5]: 0.2%
- Eos [5]: 1%
- Fbg [5]: 266.2 mg/dL
- Hb [5]: 13.1 g/dL
- Ht [5]: 38.8%
- Lym [5]: 77.6%
- MCHC [5]: 33.6%
- MCV [5]: 61.9 fL
- Mono [5]: 3.4%
- PT [5]: 14.1 s
- Plat [5]: 118.3 x10_4/uL
- RBC [5]: 626.4 x10_4/ul
- Ret [5]: 8.3%
- WBC [5]: 94.8 x10_2/uL
- KIDNEY_L [5]: 0.9 g
- KIDNEY_R [5]: 0.9 g
- KIDNEY_TOTAL [5]: 1.8 g
- LIVER [5]: 8.7 g
- ALP [5]: 1674 IU/L
- ALT [5]: 37.8 IU/L
- AST [5]: 76 IU/L
- BUN [5]: 10.2 mg/dL
- CRE [5]: 0.2 mg/dL
- DBIL [5]: 0.012 mg/dL
- GLC [5]: 185.6 mg/dL
- K [5]: 3.9 meq/L
- LDH [5]: 78.4 IU/L
- Na [5]: 141.4 meq/L
- PL [5]: 137.8 mg/dL
- RALB [5]: 2.5 g/dL
- TBIL [5]: 0.058 mg/dL
- TC [5]: 72 mg/dL
- TG [5]: 41.8 mg/dL
- TP [5]: 5.4 g/dL
- gamma-GTP [5]: 1.2 IU/L
- TERMINAL_BW [6]: 208.6 g
- APTT [6]: 16.1 s
- Bas [6]: 0.2%
- Eos [6]: 0.8%
- Fbg [6]: 289 mg/dL
- Hb [6]: 13.1 g/dL
- Ht [6]: 39.2%
- Lym [6]: 79.2%
- MCHC [6]: 33.4%
- MCV [6]: 61.4 fL
- Mono [6]: 2.4%
- PT [6]: 14.3 s
- RBC [6]: 637.2 x10_4/ul
- Ret [6]: 7.9%
- WBC [6]: 80.1 x10_2/uL
- KIDNEY_L [6]: 1 g
- KIDNEY_R [6]: 0.9 g
- KIDNEY_TOTAL [6]: 1.9 g
- LIVER [6]: 8.5 g
- ALP [6]: 1539.4 IU/L
- ALT [6]: 32 IU/L
- AST [6]: 71.8 IU/L
- BUN [6]: 8.6 mg/dL
- CRE [6]: 0.2 mg/dL
- DBIL [6]: 0.016 mg/dL
- GLC [6]: 186.4 mg/dL
- K [6]: 3.8 meq/L
- LDH [6]: 94.8 IU/L
- Na [6]: 142.2 meq/L
- PL [6]: 139.6 mg/dL
- RALB [6]: 2.5 g/dL
- TBIL [6]: 0.058 mg/dL
- TC [6]: 74.2 mg/dL
- TG [6]: 26 mg/dL
- TP [6]: 5.4 g/dL
- gamma-GTP [6]: 1.4 IU/L
- TERMINAL_BW [7]: 209.1 g
- APTT [7]: 15.5 s
- Bas [7]: 0.4%
- Eos [7]: 1%
- Fbg [7]: 295.6 mg/dL
- Hb [7]: 12.9 g/dL
- Ht [7]: 38.7%
- Lym [7]: 77.6%
- MCHC [7]: 33.4%
- MCV [7]: 61.4 fL
- Mono [7]: 1.6%
- PT [7]: 14 s
- Plat [7]: 122 x10_4/uL
- RBC [7]: 631.4 x10_4/ul
- Ret [7]: 8%
- WBC [7]: 93 x10_2/uL
- KIDNEY_L [7]: 0.9 g
- KIDNEY_R [7]: 0.9 g
- KIDNEY_TOTAL [7]: 1.8 g
- LIVER [7]: 7.6 g
- ALP [7]: 1420.6 IU/L
- ALT [7]: 31.6 IU/L
- AST [7]: 74.6 IU/L
- BUN [7]: 7.8 mg/dL
- CRE [7]: 0.2 mg/dL
- DBIL [7]: 0.016 mg/dL
- GLC [7]: 182.2 mg/dL
- K [7]: 3.9 meq/L
- LDH [7]: 83.2 IU/L
- Na [7]: 141.8 meq/L
- PL [7]: 124 mg/dL
- RALB [7]: 2.6 g/dL
- TBIL [7]: 0.062 mg/dL
- TC [7]: 66 mg/dL
- TG [7]: 23.2 mg/dL
- TP [7]: 5.5 g/dL
- gamma-GTP [7]: 1.8 IU/L
- TERMINAL_BW [8]: 203.9 g
- APTT [8]: 17 s
- Bas [8]: 0%
- Eos [8]: 1%
- Fbg [8]: 279.2 mg/dL
- Hb [8]: 13.8 g/dL
- Ht [8]: 40.9%
- Lym [8]: 75.4%
- MCHC [8]: 33.7%
- MCV [8]: 62.5 fL
- Mono [8]: 2.2%
- PT [8]: 14.3 s
- Plat [8]: 121.4 x10_4/uL
- RBC [8]: 654.4 x10_4/ul
- Ret [8]: 7.7%
- WBC [8]: 89.2 x10_2/uL
- KIDNEY_L [8]: 1 g
- KIDNEY_R [8]: 1 g
- KIDNEY_TOTAL [8]: 1.9 g
- LIVER [8]: 8 g
- ALP [8]: 1411 IU/L
- ALT [8]: 25.2 IU/L
- AST [8]: 66 IU/L
- BUN [8]: 9.8 mg/dL
- CRE [8]: 0.2 mg/dL
- DBIL [8]: 0.014 mg/dL
- GLC [8]: 174.8 mg/dL
- K [8]: 4.3 meq/L
- LDH [8]: 77 IU/L
- Na [8]: 141.8 meq/L
- PL [8]: 124.8 mg/dL
- RALB [8]: 2.6 g/dL
- TBIL [8]: 0.052 mg/dL
- TC [8]: 67.6 mg/dL
- TG [8]: 38 mg/dL
- TP [8]: 5.7 g/dL
- gamma-GTP [8]: 1.2 IU/L
